# Experimental data: patent US6653344B2, “Pharmaceutical preparations containing a dibenzocyclooctane lignan derivative for treatment of neurodegenerative disease” (Elcom Bio Technology Co., Ltd., priority 2000, dated 2003)
# Entries after “also recorded” stand apart in the source; their conditions may differ.
# Experiments:
# Type in all cases: cell-based
# [1] = system: NMDA-insulted primary cultured rat cortical cells; assay: Neuroprotection against NMDA-induced toxicity, cell viability by MTT assay; conditions: for Viability (%) NMDA-insulted: compound 1 µM for 1 hr, then 50 µM NMDA, 24 hr
# Protocol: (§1) Primary cultures of mixed cortical cells containing both neuron and glia were prepared from fetal rats as described previously (Kim Y C, Kim S R, Markelonis G J and Oh T H (1998) Ginsenosides Rb1 and Rg3 protect cultured rat cortical cells from glutamate-induced neurodegeneration. J. Neurosci. Res. 53: 426-432).
# (§2) The cortical cells were plated onto collagen-coated dishes at a density of 1×10^6 cells/ml. The cultured cells were grown in DMEM supplemented with 10% heat-inactivated fetal calf serum, 1 mM sodium pyruvate, 100 IU/ml pecicillin and 100 μg/ml streptomycin at 37° C. in a humidified atmosphere of 95% air/5% CO2. cultures were allowed to mature for 2 weeks before being used for experiments.
# (§3) To culture broth of the cortical cells during being cultured, MTT(5 mg/ml) was added by 10% of the culture broth. The broth was cultured for more 3 hours. The formed formazan was dissolved by DMSO and was assayed absorption at 540 nm ((Mosmann T (1983) Rapid colorimetric assay for cellular growth and survival: Application to proliferation and cytotoxicity assays. J. Immuno. Methods 65: 55-61)
# Glutamate receiptor is divided into NMDA receiptor which is activated by NMDA and non-NMDA receiptor which is activated by alpha-amino-3-hydroxy-5-methyl-4-isoxazole and kainic acid (KA). To first cultured cortical cells, the above compounds were each treated. The neuro-protective activities of the compounds were measured, after toxicities were induced by NMDA, the NMDA receiptor agonist, or KA, the non-NMDA receiptor agonist.
# Rat cortical cultures were treated with compounds at the concentration of 1 M for 1 hr. The cultures were then exposed to 50 µM NMDA or 50 µM KA and were maintained for an additional 24 hr. […]. Cell viability was measured by the MTT assay. Optical density of control, NMDA- and KA treated were 1.20±0.10, 0.77±0.05 and 0.85±0.08, respectively. Viability was calculated as the same as Table 1. Values given represent the mean SD (n=3).
# [2] = system: glutamate-damaged primary cultured rat cortical cells; assay: Neuroprotection against glutamate-induced neurotoxicity, cell viability by MTT assay; design: Viability (%) Pre-treatment / Viability (%) Post-treatment: unit of the concentration uncertain; conditions: for Viability: 1 hr before 100 M glutamate, then 24 hr, control 100, glutamate-treated 0; for Viability (%) Pre-treatment: compound 1 µM for 1 hr before 100 µM glutamate (15 min), then 24 hr in DMEM in the absence of compound; for Viability (%) Post-treatment: glutamate 15 min, washed, 24 hr in the presence of compound 1 µM; for neuroprotective activity, post-treatment (in words): post-treatment with lignan after glutamate; for neuroprotective activity, pre-treatment (in words): pre-treatment with lignan before glutamate; for neuroprotective activity against glutamate-induced neurotoxicity (in words): primary cultures of rat cortical cells, L-glutamate
# Protocol: as §1, §2
# The lignan compounds to be investigated for having neuroprotective activity or not were dissolved in DMSO(within final culture concentration, 0.1%) and diluted with distilled water and by passing the solution through Milliporemembrane (0.22 μm, Millex-GV, USA) to make sterile state. The solution was cultured, by differentiating the concentration and dosed to neuron cells.
# Cortical cells directly isolated from […] fetal were cultured for 14 days. The samples to be tested were treated at different concentrations to cultured cells. After one hour, neurotoxicity was induced by treating 100 μM of glutamate. After 24 hours, the survival cell rate were measured by MTT assay to determine neuroprotective activity of the samples.
# as §3
# Deoxychizandrin, gomisin N, schizandrin and wuweizisu C, the important dibenzocyclooctane lignans of Schizandra fruit were evaluated by assessing the viability of cultured cortical neurons after treatment with the neurotoxicant, glutamate. […] After cortical cells were cultured for 14 days, test compounds were dosed at different concentrations and after 1 hour neurotoxicity was induced by 100 μM glutamate. After culturing for 24 hours, the neuroprotective activity was measured. The neuroprotective activity of the compounds were measured by MTT assay for assaying the activity of succinate dehydrogenase. […] And the content of formazan is decreased, too. By using this phenomena, cell survival rate can be measured.
# We investigated the protective mechanisms of deoxyschizandrin, gomisin N and wuweizisu C in an attempt to determine at which stage these lignans protected neurons from glutamate-induced toxicity. Cultures were pretreated with the lignans for […] exposure to glutamate(pre-treatment). In addition, some cultures were exposed to glutamate in DMEM for 24 hours in the […] of lignans (post-treatment).
# Rat Cortical cultures were treated with compounds for 1 hr before exposure to 100 M glutamate and then maintained for 24 hr. Cell viability was measured by the MTT assay. Optical density (OD) of the control and glutamate-treated were 1.18±0.09 and 0.75±0.07, respectively. Viability was calculated as 100×(OD of glutamate+compound-treated−OD of glutamate-treated)/(OD of control−OD of glutamate-treated). Values given represent the mean SD (n=3).
# Rat cortical cultures were treated with compounds at the concentration of 1 M for 1 hr before exposure to 100 M glutamate (15 min) and then maintained in DMEM for 24 hr in the absence of compound (Pre-treatment). Some cortical cultures were exposed to glutamate for 15 min, washed and maintained in DMEN for 24 hr in the presence of compund (Posttreatment). Cell viability was measured by the MTT assay. Optical density (OD) of the control and glutamate-treated were 1.18±0.09 and 0.75±0.07, respectively. Viability was calculated as the same as Table 1. Values given represent the mean SD (n=3). […]
# [3] = system: nitric oxide (NO) content in glutamate-damaged primary cultured rat cortical cells; assay: Measurement of nitrite (Griess reagent), NO content; conditions: 24 hr; for Nitrate: compound 1 µM for 1 hr before 100 µM glutamate, control 90.2, glutamate-treated 141.8; for Protection (NO content): compound 1 M (1 μM) for 1 hr before 100 M glutamate
# Protocol: The content of nitrite isolated into culture broth from first cultured cortical cells was assayed by using Griess reagent by Dawson's method (Dawson V L, Brahbhatt H P, Mong J A and Dawson T M (1994) Expression of inducible nitric oxide synthase causes delayed neurotoxicity in primary neuronal-glial cortical cultures. Neuropharmacology 33: 1425-1430).
# In case glutamate is treated to first cultured cortical cells of mice, formation of NO is increased. […] When schizandrin is treated at the 1 μM concentration, it decreased NO content increased by glutamate. […] When deoxyschizandrin, gomisin N and wuweizisu C are treated at 1 uM concentration to first cultured cortical cells toxicity-induced by glutamate, those maintained about 50% of normal state activity of GSH-px and glutathione decreased by glutamate and have protective activity on the activity of antioxidant enzymes.
# (§4) Rat cortical cultures were treated with compounds at the concentration of 1 M for 1 hr before exposure to 100 M glutamate and then maintained for 24 hr. Values given represent the mean SD (n=3).
# [4] = system: intracellular Ca2+ ([Ca2+]i) in glutamate-damaged primary cultured rat cortical cells; assay: Measurement of Ca2+ concentration in cells (Fura-2 AM); conditions: for Protection ([Ca2+]i): compound 1 M (1 μM) for 1 hr before 100 M glutamate; for Protection ([Ca2+]i) / [Ca2+]i: 24 hr; for [Ca2+]i: compound for 1 hr, control 85.6, glutamate-treated 419.0
# Protocol: Therefore, the effects of Ca^2+ influx by glutamate according to deoxyschizandrin, gomisin N and wuweizisu C were investigated.
# as §4
SMILES,neuroprotective activity against toxicity induced by NMDA (in words) [1],Viability (%) NMDA-insulted [1] [%],Viability ([2]; compound 0.1 μM) [%],Viability (%) Pre-treatment [2] [%],"Viability ([2]; compound 1.0 μM, 1 µM) [%]","Viability ([2]; compound 1.0 μM, listed as gomisin N, 1 µM) [%]",Viability ([2]; compound 5.0 μM) [%],Viability (%) Post-treatment [2] [%],"neuroprotective activity, post-treatment (in words) [2]","neuroprotective activity, pre-treatment (in words) [2]",neuroprotective activity against glutamate-induced neurotoxicity (in words) [2],Nitrate [3] [nM],Protection (NO content) [3] [%],Protection ([Ca2+]i) [4] [%],Protection ([Ca2+]i) ([4]; listed as gomisin N) [%],[Ca2+]i [4] [nM],"Viability ([2]; compound 1.0 μM, listed as wuwiewisu C, 1 µM) [%]","Viability ([2]; compound 1.0 μM, listed as deoxyschzandrin, 1 µM) [%]",effect on Ca2+ influx by glutamate (in words) [4]
"COc1cc2c(c(OC)c1OC)-c1c(cc3c(c1OC)OCO3)C[C@H](C)[C@H](C)C2 [Gomisin N, gomisin N]",relatively better neuroprotective activity,45.5 ± 6.8,25.2 ± 4.4,45.5 ± 9.8,51.3 ± 8.3,51.3,49.2 ± 9.5,39.6 ± 6.2,maintained its activity,maintained its activity,exhibited neuroprotective activities; also recorded: significantly have protective activity,111.4 ± 3.3,60.2,60.3,50.3,218.0 ± 11.9,–,–,–
"COc1c2c(cc3c1-c1c(cc4c(c1OC)OCO4)C[C@H](C)[C@H](C)C3)OCO2 [Wuweizisu C, wuweizisu C]",has neuroprotective activity,52.1 ± 7.1,30.2 ± 6.3,59.6 ± 5.1,63.9 ± 5.9,–,60.9 ± 9.6,19.2 ± 7.8,not post-treatment,neuroprotective,exhibited neuroprotective activities; also recorded: significantly have protective activity,107.6 ± 2.9,65.8,67.9,–,192.6 ± 9.1,63.9,–,–
"COc1cc2c(c(OC)c1OC)-c1c(cc(OC)c(OC)c1OC)C[C@H](C)[C@H](C)C2 [Deoxyschizandrin, deoxyschizandrin]",–,11.0 ± 3.5,11.6 ± 5.1,20.1 ± 3.1,46.2 ± 6.3,–,45.6 ± 3.1,45.9 ± 5.5,significant neuroprotective activity,not pre-treated,exhibited neuroprotective activities; also recorded: significantly have protective activity,121.9 ± 3.1,40.2,20.5,–,350.7 ± 18.2,–,46.2,did not significantly effect
